Source: patent US20240226357A1, “Sanitization Method for Affinity Chromatography Matrices” (priority 2015, published 2024)
Read-outs that look alike come from different tables or passages of the source.

Assays:
[1] = tested on: Bacillus subtilis (spores); assay: Disinfectant challenge test in Capto L 50% slurry, viable count of spores; format: cell-based; settings: for Log10 reduction of Bacillus subtilis spores: mean of duplicates
Experimental: (§1) The purpose of this investigation was to evaluate the bactericidal and sporicidal effect on • bacterial spores and bacteria of eight disinfectants as well as PBS as reference added to • Capto L 50% slurry. The effect was tested with contact times of 0 and 15 minutes as well as • 1, 4, and 24 hours.
(§2) The test was performed in slurries of Capto L 50% and disinfectants. Microorganisms were • added at a concentration of approximately 10^7 cfu/mL to the suspension and the reducing effect was evaluated after given time intervals by neutralizing the disinfectant. […] The results were evaluated with regard to log10 reductions of the microorganisms Bacillus subtilis (spores) and Pseudomonas aeruginosa (vegetative bacteria).
(§3) 10^7 cfu/mL of the microorganism was added to 10 mL of Capto L 50% slurry with disinfectant. Samples were mixed and duplicate samples of 0.1 mL were added to 50 mL of neutralizing agent (0.075 M phosphate buffer with 0.3% lecithin, 3.0% Tween 80, 0.5% sodium thiosulfate and 0.1% L-histidine). The total solution was analyzed by filtrating fractions corresponding to 10-times serial dilutions. Filters were rinsed three times with 100 mL of 0.9% NaCl. As positive control each microorganism was added to 50 mL of neutralizing agent, the same amount added as for the disinfectant challenge tests. The total solution was analyzed by filtrating fractions corresponding to 10-times serial dilutions. Filters were rinsed three times with 100 mL of 0.9% NaCl. Filters were incubated on TSA (Trypticase Soy Agar) at 30-35° C. for 2-5 days. Preliminary reading was performed after 1-3 days. The reduction of microorganisms was calculated as the log10 of the surviving microorganisms as compared to that of the positive control.

[2] = tested on: Pseudomonas aeruginosa (vegetative bacteria); assay: Disinfectant challenge test in Capto L 50% slurry, viable count of vegetative bacteria; format: cell-based; settings: mean of duplicates
Experimental: as §1, §2, §3

Fab = settings: Capto L, compared to PBS control
Experimental: A PreDictor™ (GE Healthcare) 96-well filter plate with 6 microliters Capto L in each well was subjected to the following procedure: • Removal of PreDictor storage solution (20% Ethanol) • Wash: 3×200 μl 20 mM phosphate, 150 mM NaCl pH 7.4 • Wash 3×200 μl MilliQ • Addition of 600 μl SIP solutions and 20 mM phosphate, 150 mM NaCl pH 7.4 (control) (48 solutions and duplicates in plate) • Sealing of bottom and top of the plates with Parafilm • Incubation in SIP solutions for 4 or 24 hours with shaking at 450 rpm • Liquids were removed by centrifugation (500×g, 1 min).
The static binding capacity (SBC) of a Fab was determined by: • 1. Removal of SIP solutions • 2. Wash: 1x600 μl MilliQ, 1x600 μl PBS • 3. Equilibration: 3x200 μl 20 mM phosphate, 150 mM NaCl pH 7.4 • 4. Sample loading: 200 μl Fab at a concentration of 2.5 mg/mL, incubation 10 min and 90 min at 1100 rpm • 5. Collection of unbound sample in UV-readable plates and measurement of UV absorbance at 280 (and 254 nm)
Liquids were removed by centrifugation (500×g, 1 min).
The UV absorbance of the PBS buffer at 280 nm (path check on) was subtracted from the UV absorbance of the flow through fraction (A280-blank280)
The concentration in the flow through fraction was calculated using a standard curve (A280-blank280)/1.2796
[formula] • Vsample=200μl • Vmedium=6 μl • Vr=6+0.6*Vmedium=9.6 • Vr: The retained volume i.e. filter volume (6 μl) and liquid volume in resin (0.6*6)

[3] = tested on: monoclonal antibody immobilized on a Biacore chip; assay: Biacore (SPR) binding kinetics of ligands before and after incubation in 0.1 M peracetic acid; settings: ligand incubated for 0 to 24 h in 0.1 M PAA
Experimental: The kinetics was measured by Surface Plasmon Resonance on a Biacore™ instrument. […] Reference sample (0 h) was withdrawn, 100 μl and buffer exchanged to 50 mM Ammonium Bicarbonate. • 4. 10% 1 M PAA was added and the incubations started. • 5. Samples were withdrawn after 1, 2, 4, 8, 16 and 24 h, 100 μl and buffer exchanged to 50 mM Ammonium Bicarbonate to stop the oxidation reaction. • 6. The concentrations were measured in all samples by measuring the UV absorbance at 276 nm. • 7. The samples were then analyzed on LC-MS and Biacore.

[4] = 4 h incubation in SIP solution, 90' incubation with Fab sample
[5] = 24 h incubation in SIP solution, 10' incubation with Fab sample

Compound | Log10 reduction of Bacillus subtilis spores ([1]; contact time 0 min) | Log10 reduction of Bacillus subtilis spores ([1]; contact time 15 min) | Log10 reduction of Bacillus subtilis spores ([1]; contact time 1 hour) | Log10 reduction of Bacillus subtilis spores ([1]; contact time 4 hours) | Log10 reduction of Bacillus subtilis spores ([1]; contact time 24 hours) | Log10 reduction of Pseudomonas aeruginosa ([2]; contact time 0 min) | Log10 reduction of Pseudomonas aeruginosa ([2]; contact time 15 min) | Log10 reduction of Pseudomonas aeruginosa ([2]; contact time 1 hour) | Log10 reduction of Pseudomonas aeruginosa ([2]; contact time 4 hours) | Log10 reduction of Pseudomonas aeruginosa ([2]; contact time 24 hours) | Relative remaining SBC (%) (Fab; [4]) | Relative remaining SBC (%) (Fab; [5]) | also measured
N=C(NCCCCCCNC(=N)NC(=N)Nc1ccc(Cl)cc1)NC(=N)Nc1ccc(Cl)cc1.O=C(O)[C@H](O)[C@@H](O)[C@H](O)[C@H](O)CO.O=C(O)[C@H](O)[C@@H](O)[C@H](O)[C@H](O)CO [2% Chlorhexidine digluconale, Chlorhexidine digluconale] | 1.3 log10 | 1.2 log10 | 0.7 log10 | 1.6 log10 | 0.2 log10 | >6.9 log10 | >6.9 log10 | >6.9 log10 | >6.9 log10 | >6.9 log10 | – | – | –
OO [5% H2O2, hydrogen peroxide] | – | – | – | – | – | – | – | – | – | – | 102% | 102% | –
CC(=O)OO [0.1M Peracetic acid, peracetic acid] | 5.6 log10 | >6.9 log10 | >6.9 log10 | >6.9 log10 | >6.9 log10 | >6.9 log10 | >6.9 log10 | >6.9 log10 | >6.9 log10 | >6.9 log10 | – | – | Killing of B. subtilis spores (in words) ([1]; among the tested disinfectants): capable of efficiently killing B. subtilis spores; Relative remaining SBC (%) (Fab; 4 h incubation in SIP solution, 10' incubation with Fab sample, listed as 100 mM Peracetic acid): 109%; Relative remaining SBC (%) (Fab; 4 h incubation in SIP solution, 90' incubation with Fab sample, listed as 100 mM Peracetic acid): 101%; Relative remaining SBC (%) (Fab; 24 h incubation in SIP solution, 10' incubation with Fab sample, listed as 100 mM Peracetic acid): 107%
rPrA: recombinant Protein A | – | – | – | – | – | – | – | – | – | – | – | – | Affinity before and after SIP [3]: some loss in affinity with increasing SIP treatment
CC(=O)OO [500 mM Peracetic acid, Peracetic acid] | – | – | – | – | – | – | – | – | – | – | 103% | 97% | Relative remaining SBC (%) (Fab; 24 h incubation in SIP solution, 90' incubation with Fab sample): 102%
